Data published in patent US6903079B2, “Nucleoside compounds and compositions thereof” (Inotek Pharmaceuticals Corporation, priority 2000, dated 2005).

How the values were obtained:
[1] = biological target: PARS (Mus musculus, UniProt P11103); assay: PARS inhibition by nucleoside derivatives (in vitro inflammation models); assay type: cell-based
Text: For example, conjugates of adenosine derivatives were investigated for PARS inhibition.

[2] = tested on: mouse model of gut ischemia-reperfusion; assay: Gut ischemia-reperfusion by ligation and release of superior mesenteric artery; FD4 gut permeability in everted gut sacks; conditions: 10 mg/kg i.v. 10 min prior to reperfusion
Method: In order to examine the efficacy of the compounds of the invention in ischemia-reperfusion conditions, the effect of selected compounds in a local model of reperfusion injury was examined. […] The artery was occluded for 45 min, followed by reperfusion for 1 h. Following the end of the reperfusion, gut permeability was measured with the fluorescein isothiocyanate-conjugated dextran (FD4) method in everted gut sacks.
The artery was occluded for 45 min, followed by reperfusion for 1 h. Following the end of the reperfusion, gut permeability was measured with the FD4 method in everted gut sacks.

[3] = tested on: myocardial ischemia-reperfusion in Male Wistar rats; assay: Myocardial infarction by left anterior descending coronary artery occlusion/reperfusion; assay type: in vivo; conditions: rat; 20 mg/kg i.v. 10 min before reperfusion; 1 h ischemia, 2 h reperfusion
Method: In another set of experiments, Male Wistar rats were anesthetized with thiopentone sodium (60 mg/kg, i.p.) and were subjected to myocardial infarction. The chest was opened at the fourth intercostal space and a 5.0 silk ligature was placed around the left anterior descending coronary artery for occlusion. Next, one hour of myocardial ischemia was performed, followed by 2 h reperfusion. Myocardial infarct size was quantified by tetrazolium staining.

[4] = tested on: rat model of middle cerebral artery occlusion/reperfusion; assay: Middle cerebral artery occlusion/reperfusion; assay type: in vivo; conditions: 2 h occlusion, 24 h reperfusion, 10 mg/kg i.v. then 10 mg/kg/h, tetrazolium staining
Method: Occlusion lasted for 2 hours, followed by reperfusion for 24 hours. Infarct size was quantified with tetrazolium staining and survival and neurological scores were monitored. The compounds were administered at 10 mg/kg i.v. 5 min before the start of reperfusion in one group, and continued at a rate of 10 mg/kg/h infusion during the reperfusion. Vehicle-treated animals (control) developed a >50% mortality over 24 hours, whereas <10% of the animals died in the drug treated groups. The compounds tested reduced the size of brain infarction by 64±2 and 57±3%, respectively.

[5] = tested on: endotoxin-induced lethality in a mouse model; assay: Endotoxin-induced lethality (systemic inflammation); assay type: in vivo
Method: The compounds were given as oral gavage at 10 mg/kg, twice a day.

Chain of PARS (P11103 whole entry): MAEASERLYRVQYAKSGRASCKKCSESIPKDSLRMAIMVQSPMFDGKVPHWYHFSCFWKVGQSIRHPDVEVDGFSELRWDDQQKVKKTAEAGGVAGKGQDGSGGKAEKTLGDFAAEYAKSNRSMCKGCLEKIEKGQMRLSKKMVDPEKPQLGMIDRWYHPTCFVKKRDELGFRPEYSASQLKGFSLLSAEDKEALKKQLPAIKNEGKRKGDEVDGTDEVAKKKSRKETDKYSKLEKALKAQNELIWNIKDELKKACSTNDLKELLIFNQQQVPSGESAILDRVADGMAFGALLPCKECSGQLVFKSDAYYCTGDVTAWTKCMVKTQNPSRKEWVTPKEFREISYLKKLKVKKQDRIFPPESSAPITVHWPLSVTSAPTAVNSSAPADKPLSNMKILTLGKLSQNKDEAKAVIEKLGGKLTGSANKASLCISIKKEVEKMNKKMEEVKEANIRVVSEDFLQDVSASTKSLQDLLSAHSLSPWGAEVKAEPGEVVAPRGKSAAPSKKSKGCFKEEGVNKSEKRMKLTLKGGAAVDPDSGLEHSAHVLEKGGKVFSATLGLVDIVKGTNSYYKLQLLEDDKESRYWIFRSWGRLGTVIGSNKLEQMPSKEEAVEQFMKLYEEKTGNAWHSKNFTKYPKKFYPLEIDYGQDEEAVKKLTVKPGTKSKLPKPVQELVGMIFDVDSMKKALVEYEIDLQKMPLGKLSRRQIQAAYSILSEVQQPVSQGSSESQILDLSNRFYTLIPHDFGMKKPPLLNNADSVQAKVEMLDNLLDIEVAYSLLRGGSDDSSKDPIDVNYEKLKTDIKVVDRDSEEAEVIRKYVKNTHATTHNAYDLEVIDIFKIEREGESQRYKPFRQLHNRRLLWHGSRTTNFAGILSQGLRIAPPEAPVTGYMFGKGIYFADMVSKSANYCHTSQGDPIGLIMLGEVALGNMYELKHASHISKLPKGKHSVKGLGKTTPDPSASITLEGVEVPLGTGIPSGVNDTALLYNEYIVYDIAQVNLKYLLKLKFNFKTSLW

Structure (SMILES) | PARS inhibitory activity (in words) [1] | inhibition at 10 µM ([1]; 10 μM, values marked *, asterisk not explained, read-out: Inhibition at 10 μM (values marked *)) | Inhibition at 200 nm ([1]; 200 nm, printed in the 100 μM column) | reduction of the increase in the permeability of the gut [2] | reduction of myocardial infarct size [3] | reduction of the size of brain infarction [4] | protection against endotoxin-induced lethality [5]
Nc1ncnc2c1ncn2C1OC(C(=O)N2CCN(CC(=O)Nc3cccc4c3CNC4=O)CC2)C(O)C1O (stereo not shown) [Compound 130] | most potent | 97% | 100 at 200 nm | 74% | 35±7% | 57±3% | protected against endotoxin-induced lethality
CN(CCC(=O)Nc1cccc2c1CNC2=O)C(=O)C1OC(n2cnc3c(N)ncnc32)C(O)C1O (stereo not shown) [Compound 124] |  |  |  | 72% |  | 64±2% | protected against endotoxin-induced lethality
